Test system: 324938-238-R-J1-PDC complex spheroid growth, % test/control
Assay: Anticancer human tumor 324938-238-R-J1-PDC patient-derived bladder carcinoma cell line growth inhibition [AhR]
Details: for IC50: curve of first compound; for viability, T/C: stronger effect = lower value; active means viability on the fitted dose curve at most 10% of control; inactive means the rest
In short: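 Complex tumor spheroids co-cultured with HUVEC and human MSC stroma; AhR antagonists tested in combination with standard-of-care and investigational agents. Top concentration at or near clinical Cmax (else 10 microM), half-log dilutions; growth expressed as percent test/control.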

[1] = second compound 0.1 µM, first compound 0.0316 µM
[2] = second compound 0.1 µM, first compound 0.1 µM
[3] = second compound 0.1 µM, first compound 0.316 µM
[4] = second compound 0.1 µM, first compound 1 µM
[5] = second compound 0.1 µM, first compound 3.16 µM
[6] = second compound 0.1 µM, first compound 10 µM
[7] = second compound 0.316 µM, first compound 0.0316 µM
[8] = second compound 0.316 µM, first compound 0.1 µM
[9] = second compound 0.316 µM, first compound 0.316 µM
[10] = second compound 0.316 µM, first compound 1 µM
[11] = second compound 0.316 µM, first compound 3.16 µM
[12] = second compound 0.316 µM, first compound 10 µM
[13] = second compound 1 µM, first compound 0.0316 µM
[14] = second compound 1 µM, first compound 0.1 µM
[15] = second compound 1 µM, first compound 0.316 µM
[16] = second compound 1 µM, first compound 1 µM
[17] = second compound 1 µM, first compound 3.16 µM
[18] = second compound 1 µM, first compound 10 µM
[19] = second compound 3.16 µM, first compound 0.0316 µM
[20] = second compound 3.16 µM, first compound 0.1 µM
[21] = second compound 3.16 µM, first compound 0.316 µM
[22] = second compound 3.16 µM, first compound 1 µM
[23] = second compound 3.16 µM, first compound 3.16 µM
[24] = second compound 3.16 µM, first compound 10 µM
[25] = second compound 10 µM, first compound 0.0316 µM
[26] = second compound 10 µM, first compound 0.1 µM
[27] = second compound 10 µM, first compound 0.316 µM
[28] = second compound 10 µM, first compound 1 µM
[29] = second compound 10 µM, first compound 3.16 µM
[30] = second compound 10 µM, first compound 10 µM
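Further: spheroids exposed to agents for seven days before viability read.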

COc1cc(Nc2ncc3c(n2)-c2ccc(Cl)cc2C(c2c(F)cccc2OC)=NC3)ccc1C(=O)O + CC(CO)NC(=O)c1cc(-c2ccc(Cl)cc2)nn(-c2cnn(C)c2)c1=O
72.8 nM: IC50 (second compound 1 µM)
inactive: viability, T/C [1] 77% | viability, T/C [2] 41.7% | viability, T/C [3] 23.5% | viability, T/C [4] 23.6% | viability, T/C [5] 24.7% | viability, T/C [6] 31% | viability, T/C [7] 71.7% | viability, T/C [8] 44.5% | viability, T/C [9] 27.4% | viability, T/C [10] 25.4% | viability, T/C [11] 23.8% | viability, T/C [12] 30.1% | viability, T/C [13] 60.1% | viability, T/C [14] 46.1% | viability, T/C [15] 27.6% | viability, T/C [16] 28.6% | viability, T/C [17] 26.9% | viability, T/C [18] 29.2% | viability, T/C [19] 49.4% | viability, T/C [20] 42.5% | viability, T/C [21] 30% | viability, T/C [22] 25.7% | viability, T/C [23] 28.2% | viability, T/C [24] 29.8% | viability, T/C [25] 54.7% | viability, T/C [26] 40.4% | viability, T/C [27] 32.8% | viability, T/C [28] 34.9% | viability, T/C [29] 31.9% | viability, T/C [30] 39.7%
< 31.6 nM: IC50 (second compound 3.16 µM) | IC50 (second compound 10 µM)
79.1 nM: IC50 (second compound 0.316 µM)
76.2 nM: IC50 (second compound 0.1 µM)

Cn1ncnc1C1c2n[nH]c(=O)c3cc(F)cc(c23)NC1c1ccc(F)cc1 (stereo not given) + CC(CO)NC(=O)c1cc(-c2ccc(Cl)cc2)nn(-c2cnn(C)c2)c1=O
18.7 nM: IC50 (second compound 10 µM)
60.6 nM: IC50 (second compound 3.16 µM)
inactive: viability, T/C (second compound 0.1 µM, first compound 0.000316 µM) 93.4% | viability, T/C (second compound 0.1 µM, first compound 0.001 µM) 107% | viability, T/C (second compound 0.1 µM, first compound 0.00316 µM) 87.1% | viability, T/C (second compound 0.1 µM, first compound 0.01 µM) 76.3% | viability, T/C [1] 61.4% | viability, T/C [2] 58.5% | viability, T/C (second compound 0.316 µM, first compound 0.000316 µM) 83.5% | viability, T/C (second compound 0.316 µM, first compound 0.001 µM) 92.8% | viability, T/C (second compound 0.316 µM, first compound 0.00316 µM) 92.7% | viability, T/C (second compound 0.316 µM, first compound 0.01 µM) 81.7% | viability, T/C [7] 62.9% | viability, T/C [8] 48.9% | viability, T/C (second compound 1 µM, first compound 0.000316 µM) 76.8% | viability, T/C (second compound 1 µM, first compound 0.001 µM) 82.2% | viability, T/C (second compound 1 µM, first compound 0.00316 µM) 79.2% | viability, T/C (second compound 1 µM, first compound 0.01 µM) 69.6% | viability, T/C [13] 61% | viability, T/C [14] 53.5% | viability, T/C (second compound 3.16 µM, first compound 0.000316 µM) 67.6% | viability, T/C (second compound 3.16 µM, first compound 0.001 µM) 71.9% | viability, T/C (second compound 3.16 µM, first compound 0.00316 µM) 71% | viability, T/C (second compound 3.16 µM, first compound 0.01 µM) 61.5% | viability, T/C [19] 52.1% | viability, T/C [20] 47.3% | viability, T/C (second compound 10 µM, first compound 0.000316 µM) 67.3% | viability, T/C (second compound 10 µM, first compound 0.001 µM) 65.8% | viability, T/C (second compound 10 µM, first compound 0.00316 µM) 60.7% | viability, T/C (second compound 10 µM, first compound 0.01 µM) 53% | viability, T/C [25] 44.5% | viability, T/C [26] 43%
91.9 nM: IC50 (second compound 0.316 µM)
> 100 nM: IC50 (second compound 0.1 µM) | IC50 (second compound 1 µM)

NS(=O)(=O)OCC1CC(n2ccc3c(NC4CCc5ccccc54)ncnc32)CC1O (stereo not given) + CC(CO)NC(=O)c1cc(-c2ccc(Cl)cc2)nn(-c2cnn(C)c2)c1=O
558 nM: IC50 (second compound 0.316 µM)
379 nM: IC50 (second compound 10 µM)
586 nM: IC50 (second compound 1 µM)
534 nM: IC50 (second compound 0.1 µM)
inactive: viability, T/C [1] 90.3% | viability, T/C [2] 96.4% | viability, T/C [3] 66.8% | viability, T/C [4] 31.1% | viability, T/C [5] 25.3% | viability, T/C [6] 28.9% | viability, T/C [7] 88.5% | viability, T/C [8] 101% | viability, T/C [9] 64% | viability, T/C [10] 37.3% | viability, T/C [11] 21.9% | viability, T/C [12] 27.1% | viability, T/C [13] 77.1% | viability, T/C [14] 82.2% | viability, T/C [15] 64.1% | viability, T/C [16] 38.2% | viability, T/C [17] 22.9% | viability, T/C [18] 29.1% | viability, T/C [19] 69.9% | viability, T/C [20] 67.8% | viability, T/C [21] 55.4% | viability, T/C [22] 37.3% | viability, T/C [23] 27.5% | viability, T/C [24] 26.9% | viability, T/C [25] 61.5% | viability, T/C [26] 58.6% | viability, T/C [27] 51.5% | viability, T/C [28] 40.8% | viability, T/C [29] 29.1% | viability, T/C [30] 30.5%
450 nM: IC50 (second compound 3.16 µM)

O=C(C=Cc1cccc(S(=O)(=O)Nc2ccccc2)c1)NO + CC(CO)NC(=O)c1cc(-c2ccc(Cl)cc2)nn(-c2cnn(C)c2)c1=O
3180 nM: IC50 (second compound 0.1 µM) | IC50 (second compound 1 µM)
active: viability, T/C [6] 3.34% | viability, T/C [18] 6.82% | viability, T/C [24] 4.74% | viability, T/C [30] 2.36%
3550 nM: IC50 (second compound 10 µM)
3490 nM: IC50 (second compound 0.316 µM)
inactive: viability, T/C [1] 103% | viability, T/C [2] 108% | viability, T/C [3] 96.1% | viability, T/C [4] 67.4% | viability, T/C [5] 56.7% | viability, T/C [7] 94% | viability, T/C [8] 92.7% | viability, T/C [9] 85.4% | viability, T/C [10] 73.5% | viability, T/C [11] 56% | viability, T/C [12] 10.6% | viability, T/C [13] 93.2% | viability, T/C [14] 93.9% | viability, T/C [15] 89.3% | viability, T/C [16] 65% | viability, T/C [17] 55.1% | viability, T/C [19] 74.6% | viability, T/C [20] 83.9% | viability, T/C [21] 77.4% | viability, T/C [22] 67% | viability, T/C [23] 54.4% | viability, T/C [25] 70.6% | viability, T/C [26] 78.8% | viability, T/C [27] 76.9% | viability, T/C [28] 71.6% | viability, T/C [29] 55.4%
3390 nM: IC50 (second compound 3.16 µM)
